This passage reports outcome, EC50 and IC50 results from PubChem BioAssay AID179 (DTP/NCI, 2004).

Values joined by “and” are separate entries in the source; they are usually repeats but may differ in a detail not shown here. Equal values may be shown once. Active and inactive are the calls of the source.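 The calls were made as follows: active = compounds giving half or more protection of infected cells from virus-caused growth loss, again on retest; inactive = the rest.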 Where a SMILES comes first, the peptide text is derived from it. The star is where a group is joined. Fmoc = O=C(OCC1c2ccccc2-c2ccccc21)*; OtBu = CC(C)(C)O*

For the test, the system named is CEM cells HIV-1 protection, formazan growth assay. Description: NCI AIDS Antiviral Assay. Particulars: for IC50: measured here: growth of uninfected CEM cells. The procedure, abridged:
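Protection of CEM cells against HIV-1 measured as cell growth via soluble formazan read-out, with five concentrations tested on both infected and uninfected cells; failure to protect may reflect toxicity.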

As for `O=[P+](O)c1cc2ccccc2c2ccccc12`, the outcome was inactive.

For `CCOC(=O)c1c(C)[nH]c(=S)c(C#N)c1-c1ccc(OC)cc1`, the EC50 (usually the concentration giving half of the maximal effect) is more than 200 µM and the concentration for half-maximal inhibition (IC50) (usually the point on the concentration scale where inhibition reaches its midpoint) worked out at 81.3 µM.

In the case of `O=C(O)CCCCCCCC(=O)O`, the EC50 is more than 1320 µM and the IC50 is more than 1320 µM.

Consider `C[C@H](CCC(=O)O)[C@H]1CC[C@H]2[C@@H]3[C@H](O)[C@H](O)[C@@H]4C[C@H](O)CC[C@]4(C)[C@H]3CC[C@]12C`, for which the EC50 is more than 200 µM and the half-inhibitory concentration (IC50) is 72.4 µM.

For the compound `C1=CC2(C=C1)OC21CCC2(C=CC3(C2)OC3C2CCCCC2)CC1` (stereo unspecified), the EC50 is more than 200 µM and the IC50 was 51.3 µM.

For `CC(=O)C1=C(N=[N+]=[N-])c2cccc3cccc(c23)C1=O`, the outcome was inactive.

Regarding `CC1(C(=O)O)CCOc2ccccc21` (stereo unspecified), the result was inactive.

For the compound `O=C([CH-]C(=O)c1ccccc1)c1ccccc1.[CH2-]C.[CH2-]C.[Tl+3]`, the EC50 is more than 53.7 µM and the half-maximal inhibitory concentration (IC50) was more than 53.7 µM.

As to `CC1(C)OC(=O)C(=Cc2ccccc2F)C(=O)O1`, the EC50 was more than 380 µM and the 50% inhibitory concentration (IC50) was found to be 70.8 µM.

`Cc1ccc(NC(Nc2ccc(C)cc2C)=C(C(Cl)=C(Cl)Cl)[N+](=O)[O-])c(C)c1`: the EC50 is more than 200 µM and the concentration for half-maximal inhibition (IC50) worked out at 7.94 µM.

As for `OCCN1CCOC(O)(c2cccc(C(F)(F)F)c2)C1` (stereo unspecified), the EC50 was more than 200 µM and the IC50 was determined as 115 µM.

In the case of `S=c1cc(S)c(=S)[nH][nH]1`, the EC50 is more than 63.1 µM and the IC50 worked out at 19.5 µM.

As to `Cn1cnc([N+](=O)[O-])c1Sc1ccccc1C(=O)O`, the EC50 was more than 339 µM and the half-inhibitory concentration (IC50) is more than 339 µM.

`CC1(C)CCCC2(C)C3=C(CCC12)C(=O)OC3` (stereo unspecified): the EC50 was more than 30.9 µM and the IC50 is more than 30.9 µM.

Regarding `CC(C)(C)OC(=O)NS(=O)(=O)Nc1ccccc1`, the EC50 is more than 200 µM and the half-maximal inhibitory concentration (IC50) is more than 200 µM.

`Oc1cc2cc(-c3ccccc3)[nH]c2c2ccccc12`: the EC50 is more than 200 µM and the IC50 stood at 31.6 µM.

For `COc1cccc(/C=N/[N-]C(=O)c2ccncc2)c1[O-].[Ni+2].[OH3+]`, the EC50 is more than 105 µM and the concentration for half-maximal inhibition (IC50) was more than 105 µM.

Regarding `C1=C(c2ccccc2)C(OC2Oc3ccccc3C=C2c2ccccc2)Oc2ccccc21` (stereo unspecified), the EC50 was more than 31.6 µM and the concentration for half-maximal inhibition (IC50) was more than 31.6 µM.

With `C/C(=N\NC(N)=S)c1ccc(Oc2ccccc2)cc1`, the outcome was inactive.

Turning to `COc1ccc(-c2c3ccccc3c(-c3ccc(OCCBr)cc3)c3ccccc23)cc1`, the EC50 was more than 100 µM and the 50% inhibitory concentration (IC50) was more than 100 µM.

For the compound `CCOC(=O)CC1=N/C(=N/C(=N)N[N+](=O)[O-])SC1`, the result was inactive.

For `CC(=O)O[C@H]1CCC2[C@@H]3CCC4Nc5c(cnn5-c5ccccc5)C[C@]4(C)C3CC[C@@]21C` (stereo partly specified), the result was inactive.

In the case of `O=C(NCCc1ccccn1)c1ccc2cc(C(=O)N3CC(CCl)c4ccc([N+](=O)[O-])cc43)[nH]c2c1` (stereo unspecified), the EC50 is more than 200 µM and the IC50 stood at 74.1 µM.

For the compound `CCOC(=O)c1c(NS(=O)(=O)c2ccc(C)cc2)sc(C)c1C`, the EC50 was more than 200 µM and the IC50 turned out to be 33.9 µM.

Take `Cn1c2ccc(Cl)cc2c2ccc3c(c21)C(=O)C=CC3=O`: the EC50 is more than 100 µM and the concentration for half-maximal inhibition (IC50) was 12.9 µM.

In the case of `COC(=O)C1OC12CCCCC2` (stereo unspecified), the EC50 was more than 200 µM and the IC50 is more than 200 µM.

With `O=C1C(=Nc2ccc(Nc3ccccc3)cc2)Oc2ccccc21`, the EC50 is more than 200 µM and the half-maximal inhibitory concentration (IC50) came out at 3.09 µM.

On to `O=C(Nc1ccccc1Cl)c1cc2cc(N=Nc3ccc(Br)cc3)ccc2oc1=O`, for which the outcome was inactive.

In the case of `CC(C)C(NC(=O)OCC1c2ccccc2-c2ccccc21)C(=O)NC(CCC(=O)OC(C)(C)C)C(=O)OC(C)(C)C` (stereo unspecified) (Fmoc-Val-Glu(OtBu)-OtBu; configuration not given here), the EC50 was more than 200 µM and the half-maximal inhibitory concentration (IC50) was 24.5 µM.

With `O=c1oc2c3ccc4ccccc4c3n(CCCN3CCCCC3)c2c2ccccc12`, the EC50 is more than 16.2 µM and the IC50 worked out at 7.76 µM.

For `CC(C)(Oc1ccc(C(=O)c2ccc(Cl)cc2)cc1Cl)C(=O)Nc1c(Cl)cccc1Cl`, the EC50 was more than 7.59 µM and the IC50 was more than 7.59 µM.

`CN1C(=O)c2ccccc2N=CN1C(=O)Nc1ccccc1`: the EC50 is more than 123 µM and the concentration for half-maximal inhibition (IC50) is more than 123 µM.

For `O=[N+]([O-])c1cccc(C2N3CCCCC3[C@@H]3c4[nH]c5ccccc5c4CCN23)c1` (stereo partly specified), the EC50 is more than 18.6 µM and the IC50 was more than 18.6 µM.

Take `CCOC(=O)NC(C(F)(F)F)(C(F)(F)F)P(=O)(OCC)OCC`: the EC50 is more than 200 µM and the IC50 was determined as 11.5 µM.

As for `O=[N+]([O-])c1ccc(-n2nnc3ccccc32)nc1`, the EC50 is more than 200 µM and the IC50 was more than 200 µM.

Take `Cc1ccc(S(=O)(=O)NCCSSCCNS(=O)(=O)c2ccc(C)cc2)cc1`: the EC50 is more than 200 µM; the IC50 is 19.5 µM and 26.9 µM.

As to `COc1ccc(OC)c(C(Nc2ccc3cn[nH]c3c2)P(=O)(c2ccccc2)c2ccccc2)c1` (stereo unspecified), the outcome was inactive.

As for `O=C(O)C12CCCCC1CCCC2` (stereo unspecified), the EC50 is more than 372 µM and the concentration for half-maximal inhibition (IC50) was more than 372 µM.

Take `c1ccc([P+](Cc2ccc(C[P+](c3ccccc3)(c3ccccc3)c3ccccc3)s2)(c2ccccc2)c2ccccc2)cc1`: the EC50 was 16.2 µM and the concentration for half-maximal inhibition (IC50) came to 34.7 µM.

With `Cc1ccc(CN2CC(=O)N3Cc4ccccc4CN3C(=O)C2)cc1`, the outcome was inactive.

As for `COc1cc2c(cc1OC)C(Cc1ccc(OC)c(Oc3ccc(C[C@@H]4c5cc(OC)c(OC)cc5CCN4C)cc3)c1)N(C)CC2` (stereo partly specified), the result was inactive.

Take `O=C(/C=C/c1ccc2c(c1)OCO2)c1ccccc1`: the EC50 was more than 200 µM; the IC50 was 7.08 µM and 11.2 µM.

For the compound `CC(=O)c1cccc(C(C)=O)c1N=Cc1ccc(O)cc1`, the result was inactive.

In the case of `Cc1ccc(NC(=S)/N=C/C(C(=O)c2ccccc2)=C(\O)c2ccccc2)c(C)c1`, the EC50 is more than 200 µM and the 50% inhibitory concentration (IC50) worked out at 31.6 µM.

Turning to `CC(NC(=O)C(C)NC(=O)C(N)CCP(C)(=O)O)C(=O)O` (stereo unspecified), the result was inactive.

Consider `Cc1cc(N(C)c2ccccc2)nc(N(C)c2ccccc2)n1`, for which the EC50 is more than 200 µM and the 50% inhibitory concentration (IC50) came out at 60.3 µM.

`C/C(CC(=O)Nc1ccc(C)c(C)c1)=N\NC(N)=O`: the EC50 is more than 692 µM and the IC50 is more than 692 µM.

`COc1ccc2nc3cc(Cl)ccc3c(NCCCNCCCNc3c4ccc(Cl)cc4nc4ccc(OC)cc34)c2c1`: the EC50 is more than 2 µM and the IC50 is 0.0148 µM.

Regarding `S=C(NC1CCCCC1)SSSSC(=S)NC1CCCCC1`, the EC50 is more than 91.2 µM and the 50% inhibitory concentration (IC50) was found to be 33.1 µM.

`CCCNC(=S)NNC(=O)CSc1nc(-c2ccccc2)c(-c2ccccc2)[nH]1`: the EC50 is more than 117 µM and the IC50 is 57.5 µM.

Regarding `CC(C)(C)c1ccc(O)c(Cc2cc(C(C)(C)C)cc(Cc3cc(C(C)(C)C)ccc3O)c2O)c1`, the EC50 is more than 39.8 µM and the IC50 came out at 12.9 µM.

Turning to `O=C(c1cc(=O)c2ccc(O)cc2o1)c1ccc(Cl)cc1Cl`, the EC50 is more than 204 µM and the IC50 was 18.6 µM.

Consider `CC1(C)OP(=O)(c2ccccc2)C=C1Sc1ccc([N+](=O)[O-])cc1[N+](=O)[O-]` (stereo unspecified), for which the EC50 was 44.7 µM and the half-maximal inhibitory concentration (IC50) came out at 105 µM.

`O=C(O)CN1CCNCCN(CC(=O)O)CCNCC1`: the EC50 was more than 200 µM and the IC50 was 3.63 µM.

Turning to `O=C(Nc1ccc(Cl)c(Cl)c1)n1ncc2ccc([N+](=O)[O-])cc21`, the EC50 is more than 200 µM and the IC50 was found to be 170 µM.

Regarding `CN/N=C(/CC(=O)c1sc(-n2nc(-c3ccccc3)cc2-c2ccccc2)nc1C)C(=O)Nc1ccc(Cl)c(Cl)c1`, the EC50 was more than 112 µM and the IC50 is more than 112 µM.

As to `[CH3][Hg]/[N]=C(/N)NC#N`, the outcome was inactive.

As to `CCCCCCCN1C(=O)C(O)(c2ccc(C3(O)C(=O)N(CCCCCCC)c4ccccc43)s2)c2ccccc21` (stereo unspecified), the EC50 is more than 200 µM and the concentration for half-maximal inhibition (IC50) was 11.2 µM.

Regarding `CCN(CC)/[N+]([O-])=N/OCOC(C)=O`, the EC50 is more than 200 µM and the IC50 was determined as 102 µM.

Turning to `O=C(c1ccccc1)c1ccc(C(c2c(O)c3ccccc3oc2=O)c2c(O)c3ccccc3oc2=O)cc1`, the EC50 was more than 200 µM and the half-inhibitory concentration (IC50) turned out to be 34.7 µM.

Take `CCCCCCCCCc1cc(-c2ccc(C=O)s2)sc1-c1ccc(C=O)s1`: the EC50 was more than 200 µM and the IC50 was found to be 2.75 µM.

With `CCOc1ccccc1N=NC1C(=O)N(C(=O)CC(=O)Nc2ccccc2Cl)N=C1C` (stereo unspecified), the EC50 is more than 200 µM and the IC50 was more than 200 µM.

For `Cc1cccc(C)c1NC(=O)CCC(=O)CC(=O)C(C)C`, the EC50 was more than 123 µM and the 50% inhibitory concentration (IC50) was more than 123 µM.

In the case of `CC1(C)OC(=O)c2cc(C(=CC=O)c3cc(Cl)c4c(c3)C(=O)OC(C)(C)O4)cc(Cl)c2O1`, the EC50 is more than 200 µM and the IC50 came out at 36.3 µM.

For the compound `NC(=S)NCC12CC3CC(CC(C3)C1)C2`, the outcome was inactive.

With `O=[N+]([O-])c1cccc(SSc2cccc([N+](=O)[O-])c2)c1`, the EC50 was > 200 µM and 20.4 µM; the concentration for half-maximal inhibition (IC50) was 4.57 µM and 34.7 µM and 6.31 µM.

In the case of `O=C1c2ccccc2C(=O)N1CCN(CCN1C(=O)c2ccccc2C1=O)Cc1ccccc1`, the result was inactive.

`C/C(CCc1ccccc1)=N\Nc1ccc([N+](=O)[O-])cc1[N+](=O)[O-]`: the EC50 was more than 21.9 µM and the IC50 was more than 21.9 µM.

Consider `CC(=O)OC1(c2ccccc2)OC(=O)C(C)(C)c2ccccc21` (stereo unspecified), for which the EC50 was more than 158 µM and the IC50 is more than 158 µM.

With `CCOC(=O)C(C(=O)OCC)=C1N[C@H](C(=O)OCC)CS1`, the EC50 was more than 295 µM and the IC50 was more than 295 µM.

As for `COC(=O)/C=C/c1cnc2c(c1)oc(=O)n2CCc1ccccn1`, the EC50 was more than 200 µM and the concentration for half-maximal inhibition (IC50) turned out to be 24 µM.

In the case of `Clc1ccc(-c2nnc(-c3nsc4ccccc34)o2)cc1`, the EC50 is more than 12 µM and the IC50 is more than 12 µM.

With `Clc1cccc(Cl)c1C1ON=C(c2ccccc2)N1C12CC3CC(CC(C3)C1)C2` (stereo unspecified), the EC50 was more than 100 µM and the concentration for half-maximal inhibition (IC50) came to 14.5 µM.
